Results taken from patent US10301288B2, “Kinase inhibitors” (Topivert Pharma Limited, priority 2013, dated 2019).
Like-named read-outs stand apart in the source and are kept apart here.

Key:
[1] = molecular target: c-Src (Homo sapiens (Human), UniProt P12931); assay: c-Src enzyme inhibition (FRET); assay type: biochemical
Method in brief: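 Z-LYTE FRET peptide assay: c-Src (3000 ng/mL) or Syk (2000 ng/mL) preincubated 2 h at room temperature with compound (4–0.004 μg/mL working solutions). Reaction was 1 h with peptide (8 μM solution) and ATP (800 μM c-Src, 60 μM Syk solutions), followed by 1 h protease development. Phosphorylation was read as the coumarin/fluorescein emission ratio.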

[2] = Hepatic microsomal stability, dog; assay type: in vitro ADME; details: pooled liver microsomes, read-out: Mean intrinsic clearance
Description: • Microsomal stability assays were performed with incubations of test compounds at 0.1 μM (n=2, final DMSO concentration 0.25%), and carried out using pooled human, […], rat and Cynomolgus macaque hepatic microsomes from Xenotech (Lots 1210153, 0810143 and 1110042, respectively) at 0.25 mg protein/mL in the presence of cofactor, NADPH. The incubations were performed at 37° C. with 100 μL aliquots taken from the incubation, at 0, 2, 5, 10 and 20 minutes (and, in the case of Cynomolgus macaque hepatic microsomes, 40 minutes) and reactions terminated by addition of 100 μL of acetonitrile containing carbamazepine as analytical internal standard. […] Half-life values were calculated from the relationship T1/2 (min)=−0.693/λ • where λ was the slope of the Ln concentration vs time curve. • The in vitro intrinsic clearance, Clint (mL/min/kg), was calculated and scaled to hepatic extraction ratios using the following scaling parameters and formulae.
Formulae Clint(tissue clearance) mL/min/kg=[0.693/t½ (min)]×[1/microsomal protein concentration mg/mL]×[mg microsomes/g liver]×[g liver/kg body weight] […] Half-life values were calculated from the relationship T1/2 (min)=−0.693/λ • where λ was the slope of the Ln concentration vs time curve. • Standard compounds testosterone, midazolam and 4-methylumbelliferone are included in the assay design.

[3] = Pharmacokinetics and colon distribution in mice; assay type: in vivo, male C57BL/6 mice; details: male, 5 mg/kg p.o.; for concentration at 1 h / concentration at 2 h / concentration at 4 h / concentration at 6 h / concentration at 8 h / concentration at 12 h / concentration at 24 h: po, mouse
Description: Blood samples (approximately 60 μL) were collected from retro orbital plexus such that the samples were obtained at 1, 2, 4, 6, 8, 12 and 24 hr. The blood samples were collected from a set of three mice at each time point in labelled micro centrifuge tube containing K2EDTA as anticoagulant. Plasma samples were separated by centrifugation at 4000 rpm for 10 min of whole blood and stored below −70° C. until bioanalysis. After collection of blood sample, animals were humanely euthanized by carbon dioxide asphyxiation to collect total colon tissues. The colons were flushed with cold phosphate buffer saline (pH 7.4) to remove contents. The total colon tissues were homogenized with cold phosphate buffer saline (pH 7.4) of twice the weight of colon tissue and stored below −70° C. Total volume was three times the total colon tissue weights. All samples were processed for analysis by protein precipitation using acetonitrile and analyzed with developed LC-MS/MS method (LLOQ: 2.02 ng/mL in plasma and 1.01 ng/mL in colon tissue). Pharmacokinetic parameters were calculated using the non-compartmental analysis tool of Phoenix WinNonlin® software (version 6.3).

[4] = molecular target: B-Raf (V600e) (Homo sapiens (Human), UniProt P15056, V600E); assay: KINOMEscan enzyme binding assay, B-Raf (V600e)
Chain of B-Raf (V600e) (P15056 whole entry V600E): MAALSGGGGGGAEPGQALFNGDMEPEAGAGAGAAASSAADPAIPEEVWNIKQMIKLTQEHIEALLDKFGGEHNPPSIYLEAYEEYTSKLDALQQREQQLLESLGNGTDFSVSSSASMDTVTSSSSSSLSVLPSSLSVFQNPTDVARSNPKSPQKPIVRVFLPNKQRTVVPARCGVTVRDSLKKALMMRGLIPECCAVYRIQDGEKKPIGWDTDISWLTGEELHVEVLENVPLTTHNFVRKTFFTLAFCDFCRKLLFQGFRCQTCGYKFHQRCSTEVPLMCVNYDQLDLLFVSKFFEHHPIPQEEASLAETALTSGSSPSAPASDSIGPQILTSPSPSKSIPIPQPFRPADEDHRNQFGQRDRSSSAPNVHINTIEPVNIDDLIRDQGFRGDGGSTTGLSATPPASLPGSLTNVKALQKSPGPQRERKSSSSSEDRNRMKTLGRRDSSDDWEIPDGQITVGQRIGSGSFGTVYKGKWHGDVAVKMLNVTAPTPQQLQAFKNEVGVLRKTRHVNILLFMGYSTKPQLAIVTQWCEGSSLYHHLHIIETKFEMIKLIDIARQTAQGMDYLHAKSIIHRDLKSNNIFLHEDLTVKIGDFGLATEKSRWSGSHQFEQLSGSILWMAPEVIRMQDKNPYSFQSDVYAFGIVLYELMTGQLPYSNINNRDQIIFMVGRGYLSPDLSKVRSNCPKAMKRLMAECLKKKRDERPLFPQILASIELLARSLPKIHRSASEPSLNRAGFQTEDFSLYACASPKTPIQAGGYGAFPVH
Description: Kinase enzyme binding activities of compounds disclosed herein may be determined using a proprietary assay which measures active site-directed competition binding to an immobilized ligand (Fabian, M. A. et al., Nature Biotechnol., 2005, 23:329-336). These assays may be conducted by DiscoverX (formerly Ambit; San Diego, Calif.). The percentage inhibition produced by incubation with a test compound may be calculated relative to the non-inhibited control.

[5] = test system: HT29 cells; assay: (d) IL-1β-induced IL-8 release in HT29 cells; assay type: cell-based; details: Homo sapiens, HT-29, read-out: IC50 for Inhibition of Cytokine Release, IL-8
Description: HT29 cells, a human colon adenocarcinoma cell line, are plated in a 96 well plate (24 hrs) and pre-treated with compounds at the desired concentration for 2 hours before addition of 5 ng/ml of IL-1β (Abeam) for 24 hours. Supernatants are harvested for IL-8 quantification by Sandwich ELISA (Duo-set, R&D System). The IC50 is determined from the dose response curve.

[6] = C57BL/6, colon, read-out: Mean concentration, Colon
[7] = C57BL/6, plasma, read-out: Mean concentration, Plasma
[8] = C57BL/6, po, Mouse, Total colon

Chain of c-Src (P12931 whole entry, looked up): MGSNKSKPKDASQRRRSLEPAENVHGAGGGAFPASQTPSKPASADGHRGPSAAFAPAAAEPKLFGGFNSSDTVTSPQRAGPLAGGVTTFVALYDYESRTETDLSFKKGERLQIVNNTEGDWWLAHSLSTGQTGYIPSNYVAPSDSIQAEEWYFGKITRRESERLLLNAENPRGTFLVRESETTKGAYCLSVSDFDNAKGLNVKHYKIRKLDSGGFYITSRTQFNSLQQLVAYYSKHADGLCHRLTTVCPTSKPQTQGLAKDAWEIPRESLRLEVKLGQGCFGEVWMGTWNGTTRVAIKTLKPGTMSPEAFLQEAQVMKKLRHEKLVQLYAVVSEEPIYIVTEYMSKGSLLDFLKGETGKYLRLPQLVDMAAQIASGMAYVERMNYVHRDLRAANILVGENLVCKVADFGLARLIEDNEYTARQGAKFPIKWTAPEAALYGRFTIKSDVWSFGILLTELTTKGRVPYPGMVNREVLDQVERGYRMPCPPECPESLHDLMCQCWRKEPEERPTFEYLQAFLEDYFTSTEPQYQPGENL

C#Cc1cc(Nc2nccc(Oc3ccc(NC(=O)Nc4cc(C(C)(C)C)nn4-c4ccc(C)cc4)c4ccccc34)n2)cc(C(=O)NCCOCCOCCOC)c1 [Example 2, 3-((4-((4-(3-(3-(tert-Butyl)-1-(p-tolyl)-1H-pyrazol-5-yl)ureido)naphthalen-1-yl)oxy)pyrimidin-2-yl)amino)-5-ethynyl-N-(2-(2-(2-methoxyethoxy)ethoxy)ethyl)-benzamide]
IC50 [1]: 11 nM | microsomal CLint at 0.1 μM [2]: > 554 µL/min/mg | concentration at 1 h [3, 6]: 884 ng/g | concentration at 2 h [3, 6]: 2810 ng/g | concentration at 4 h [3, 6]: 4240 ng/g | concentration at 6 h [3, 6]: 1400 ng/g | concentration at 8 h [3, 6]: 13700 ng/g | concentration at 12 h [3, 6]: 7490 ng/g | concentration at 24 h [3, 6]: 31.6 ng/g | concentration at 1 h [3, 7]: 11.7 ng/mL | concentration at 2 h [3, 7]: 8.5 ng/mL | concentration at 4 h [3, 7]: 5.1 ng/mL | concentration at 6 h [3, 7]: 4.55 ng/mL | concentration at 8 h [3, 7]: 5.1 ng/mL | concentration at 12 h [3, 7]: 0 ng/mL | concentration at 24 h [3, 7]: 0 ng/mL | AUC(0-t) ([3]; C57BL/6, po, Mouse, Plasma): 0.049 µg·h/mL | Cmax ([3]; C57BL/6, po, Mouse, Plasma): 12 ng/mL | Tmax ([3]; C57BL/6, po, Mouse, Plasma): 1 h | AUC(0-inf) [3, 8]: 118 µg·h/mL | AUC(0-t) [3, 8]: 117 µg·h/mL | Cmax [3, 8]: 13700 ng/mL | Tmax [3, 8]: 8 h | effect on the binding of B-Raf (V600e) to its standard ligand [4]: did not have any effect | IC50 [5]: 3.3 nM
